The values that follow are results of earlier work, collected in PMC11584006, “Structural characterization and AlphaFold modeling of human T cell receptor recognition of NRAS cancer neoantigens” (Science Advances, 2024).

The series has as its system T cells transduced with these TCRs. The following applies: for peptide concentration at which TCR-transduced T cells can be activated: APCs pulsed with peptide, wild-type tested at >1000-fold higher concentrations. The source says: KRAS is the most highly mutated RAS isoform across cancers, accounting for ~85% of all RAS mutations with especially high frequencies in pancreatic and colorectal cancers ([12], [13]). However, NRAS mutations dominate in melanomas, with mutations at position 61 appearing in ~20% of patients ([14]). The two most frequent mutations are Q61K and Q61R ([15]). Mutant NRAS melanomas have more aggressive clinical features and poorer outcomes compared to nonmutant NRAS melanomas ([16]–[18]). […] This HLA-A*01:01–restricted TCR recognizes the NRAS^Q61K and NRAS^Q61R neoepitopes using gene segments TRDV1 and TRAJ27-1 for the α chain and TRBV27 and TRBJ2-5 for the β chain. […] Recombinant TCR and pMHC proteins were expressed by in vitro folding from bacterial inclusion bodies. Biotinylated wild-type NRAS–HLA-A1, NRAS ...

In the case of “ILDTAGKEEY [NRAS^Q61K, NRAS^Q61K peptide ([…]), residues 55 to 64]”, the “peptide concentration at which TCR-transduced T cells can be activated” value (shortened to “peptide concentration”) is given as “subnanomolar”. For “ILDTAGQEEY [wild-type NRAS peptide, reference compound]”, the “peptide concentration” value is recorded as “do not respond”.

“ILDTAGREEY [NRAS^Q61R, NRAS^Q61R peptide ([…])]”: the “peptide concentration” value is given as “subnanomolar”. Further, the “concentration of peptide required for recognition (peptide titrations), relative to NRAS^Q61K” value (peptide titrations, HLA-A*01:01) is reported as “a higher concentration”.
